Results taken from PubChem BioAssay AID1259407 (Chemical Carcinogenesis Research Information System (CCRIS), 2018).
Calls of active or inactive are those of the source. No rule for the calls is given here.

Tested on: CCRIS mutagenicity, Ames/micronucleus/aberration tests
Experiment: CCRIS mutagenicity studies

Measured: mutagenic call

CC(=O)c1ccc(N)cc1
inactive: Test System: E. COLI, Strain/Indicator: WP2 UVRA, Metabolic Activation: NONE, Method: FLUCTUATION TEST inactive; negative

CN(C)c1ccc(C(=O)c2ccc(N(C)C)cc2)cc1
inactive: Test System: AMES SALMONELLA TYPHIMURIUM, Strain/Indicator: TA98, Metabolic Activation: MOUSE, LIVER, S-9, AROCLOR 1254, Method: STANDARD PLATE inactive; negative | Test System: AMES SALMONELLA TYPHIMURIUM, Strain/Indicator: TA98, Metabolic Activation: MOUSE, LIVER, S-9, Method: STANDARD PLATE inactive; negative | Test System: AMES SALMONELLA TYPHIMURIUM, Strain/Indicator: TA98, Metabolic Activation: NONE, Method: STANDARD PLATE inactive; negative | Test System: AMES SALMONELLA TYPHIMURIUM, Strain/Indicator: TA98, Metabolic Activation: RAT, LIVER, S-9, Method: STANDARD PLATE inactive; negative | Test System: AMES SALMONELLA TYPHIMURIUM, Strain/Indicator: TA100, Metabolic Activation: HAMSTER, LIVER, S-9, AROCLOR 1254, Method: STANDARD PLATE inactive; negative | Test System: AMES SALMONELLA TYPHIMURIUM, Strain/Indicator: TA100, Metabolic Activation: HAMSTER, LIVER, S-9, Method: STANDARD PLATE inactive; negative | Test System: AMES SALMONELLA TYPHIMURIUM, Strain/Indicator: TA100, Metabolic Activation: MOUSE, LIVER, S-9, Method: STANDARD PLATE inactive; negative | Test System: AMES SALMONELLA TYPHIMURIUM, Strain/Indicator: TA100, Metabolic Activation: NONE, Method: STANDARD PLATE inactive; negative | Test System: AMES SALMONELLA TYPHIMURIUM, Strain/Indicator: TA100, Metabolic Activation: RAT, LIVER, S-9, AROCLOR 1254, Method: STANDARD PLATE inactive; negative | Test System: AMES SALMONELLA TYPHIMURIUM, Strain/Indicator: TA100, Metabolic Activation: RAT, LIVER, S-9, Method: STANDARD PLATE inactive; negative | Test System: AMES SALMONELLA TYPHIMURIUM, Strain/Indicator: TA1535, Metabolic Activation: HAMSTER, LIVER, S-9, AROCLOR 1254, Method: STANDARD PLATE inactive; negative | Test System: AMES SALMONELLA TYPHIMURIUM, Strain/Indicator: TA1535, Metabolic Activation: HAMSTER, LIVER, S-9, Method: STANDARD PLATE inactive; negative | Test System: AMES SALMONELLA TYPHIMURIUM, Strain/Indicator: TA1535, Metabolic Activation: MOUSE, LIVER, S-9, AROCLOR 1254, Method: STANDARD PLATE inactive; negative | Test System: AMES SALMONELLA TYPHIMURIUM, Strain/Indicator: TA1535, Metabolic Activation: MOUSE, LIVER, S-9, Method: STANDARD PLATE inactive; negative | Test System: AMES SALMONELLA TYPHIMURIUM, Strain/Indicator: TA1535, Metabolic Activation: NONE, Method: STANDARD PLATE inactive; negative | Test System: AMES SALMONELLA TYPHIMURIUM, Strain/Indicator: TA1535, Metabolic Activation: RAT, LIVER, S-9, AROCLOR 1254, Method: STANDARD PLATE inactive; negative | Test System: AMES SALMONELLA TYPHIMURIUM, Strain/Indicator: TA1535, Metabolic Activation: RAT, LIVER, S-9, Method: STANDARD PLATE inactive; negative | Test System: AMES SALMONELLA TYPHIMURIUM, Strain/Indicator: TA1537, Metabolic Activation: HAMSTER, LIVER, S-9, AROCLOR 1254, Method: STANDARD PLATE inactive; negative | Test System: AMES SALMONELLA TYPHIMURIUM, Strain/Indicator: TA1537, Metabolic Activation: MOUSE, LIVER, S-9, AROCLOR 1254, Method: STANDARD PLATE inactive; negative | Test System: AMES SALMONELLA TYPHIMURIUM, Strain/Indicator: TA1537, Metabolic Activation: MOUSE, LIVER, S-9, Method: STANDARD PLATE inactive; negative | Test System: AMES SALMONELLA TYPHIMURIUM, Strain/Indicator: TA1537, Metabolic Activation: NONE, Method: STANDARD PLATE inactive; negative | Test System: AMES SALMONELLA TYPHIMURIUM, Strain/Indicator: TA1537, Metabolic Activation: RAT, LIVER, S-9, AROCLOR 1254, Method: STANDARD PLATE inactive; negative | Test System: AMES SALMONELLA TYPHIMURIUM, Strain/Indicator: TA1537, Metabolic Activation: RAT, LIVER, S-9, Method: STANDARD PLATE inactive; negative | Test System: AMES SALMONELLA TYPHIMURIUM, Strain/Indicator: TA1538, Metabolic Activation: MOUSE, LIVER, S-9, Method: STANDARD PLATE inactive; negative | Test System: AMES SALMONELLA TYPHIMURIUM, Strain/Indicator: TA1538, Metabolic Activation: NONE, Method: STANDARD PLATE inactive; negative | Test System: AMES SALMONELLA TYPHIMURIUM, Strain/Indicator: TA1538, Metabolic Activation: RAT, LIVER, S-9, Method: STANDARD PLATE inactive; negative | Test System: E. COLI, Strain/Indicator: WP2 UVRA, Metabolic Activation: HAMSTER, LIVER, S-9, AROCLOR 1254, Method: STANDARD PLATE inactive; negative | Test System: E. COLI, Strain/Indicator: WP2 UVRA, Metabolic Activation: HAMSTER, LIVER, S-9, Method: STANDARD PLATE inactive; negative | Test System: E. COLI, Strain/Indicator: WP2 UVRA, Metabolic Activation: MOUSE, LIVER, S-9, AROCLOR 1254, Method: STANDARD PLATE inactive; negative | Test System: E. COLI, Strain/Indicator: WP2 UVRA, Metabolic Activation: MOUSE, LIVER, S-9, Method: STANDARD PLATE inactive; negative | Test System: E. COLI, Strain/Indicator: WP2 UVRA, Metabolic Activation: NONE, Method: STANDARD PLATE inactive; negative | Test System: E. COLI, Strain/Indicator: WP2 UVRA, Metabolic Activation: RAT, LIVER, S-9, AROCLOR 1254, Method: STANDARD PLATE inactive; negative | Test System: E. COLI, Strain/Indicator: WP2 UVRA, Metabolic Activation: RAT, LIVER, S-9, Method: STANDARD PLATE inactive; negative
